Results from patent publication US7973075B2, “Kainate receptor-selective epimeric analogs of dysiherbaine” (priority 2007, dated 2011).
“Also recorded” adds a separate entry of the source. Like-named read-outs stand apart in the source and are kept apart here.

Experiments:
GluR1(i) = target: T1, GluR1(i) (Rattus norvegicus, UniProt P19490); assay: Radioligand binding ([3H]AMPA displacement), HEK-293-T/17 membranes, Example 2; details: Cheng-Prusoff
T1 construct: expressed in transfected cells; host or cells: HEK-293-T/17
Protocol: (§1) Radioligand binding. Membrane preparations from HEK-293-T/17 cells were prepared and used in radioligand binding assays as described previously (Sanders et al., 2005). Unlabeled analogs were used to displace [3H]kainate (10-20 nM, PerkinElmer Life and Analytical Sciences, Boston, Mass.) or [3H]AMPA (20 nM, PerkinElmer Life and Analytical Sciences, Boston, Mass.) from KARs and AMPARs, respectively. Nonspecific binding was determined in the presence of 1 mM glutamate. After 1 hour incubation at 4° C., samples were harvested by rapid filtration onto Whatman GF/C membranes. Upon addition of scintillation fluid, membranes were incubated for 1 hour at room temperature. A Beckman LS5000TD scintillation counter was used for quantification (Beckman Coulter Inc., Fullerton, Calif.). Data were plotted and fit with a one-site competition curve with fixed minima and maxima using Prism 4 (GraphPad Software, Inc). Ki's were calculated with the Cheng-Prusoff equation using the determined IC5o values and the radioligand Kd. Data were plotted and fit with a one-site competition curve with fixed minima (0) and maxima (100) (Prism4, GraphPad Software, Inc.). Correlation analysis was performed with these binding data and the seizure activity of each analog, represented as ED50 values.
(§2) The pharmacological profiles of the Group I analogs, 8-deoxy-neoDH and 9-deoxyneoDH, were analyzed initially in radioligand binding experiments with expressed recombinant AMPA and kainate receptor subunits. Displacement of [3H]kainate from cell membranes with a range of analog concentrations yielded IC50 values that were then used to calculate Ki values for each analog/receptor combination. Both Group 1 analogs retained high affinity only for GluR5-2a KAR subunits (FIG. 8A). […] Weak binding to other KAR and AMPAR subunits was observed, with all Ki values estimated at >10 μM (n=3-5; Table 3, FIG. 8A).
(§3) For comparison, the Ki values for neoDH and MSVIII-19 are included in the table (Sanders et al., 2005). Removal of the C9 hydroxyl eliminated binding to all receptor subunits (Ki values estimated at >100 μM), with the exception of GluR5-2a KARs.

GluR2(i) = target: T2, GluR2(i) (Rattus norvegicus, UniProt P19491); assay: as above; details: Cheng-Prusoff
T2 construct: expressed in transfected cells; host or cells: HEK-293-T/17
Protocol: as §1, §2, §3

GluR5-2a = target: T3, GluR5-2a (Rattus norvegicus, UniProt P22756, DEL402-416); assay: Whole-cell patch clamp recordings, transfected HEK-293-T/17 cells, Example 2; type: cell-based; details: for recovery of glutamate-evoked currents after analog application, GluR5-2a: 30 μM analog; for agonist activity: analog-evoked currents from GluR5-2a receptors (words): 1 s test application of the analog at a high concentration (10-100 μM); for time constant for recovery of glutamate-evoked currents, τ: after 2.5 min application of 30 μM analog; for inhibition of glutamate-evoked current, GluR5-2a: pre-application of 1 μM analog, 10 mM glutamate
T3 construct: expressed in transfected cells; host or cells: HEK-293-T/17
Protocol: Cell Culture and Electrophysiology. HEK-293-T/17 cells were maintained in Dulbecco's modified Eagle's medium (DMEM) supplemented with 100 μg/mL penicillin, 100 μg/mL streptomycin, and 10% heat inactivated fetal bovine serum. One day before transfection, HEK-T/17 cells were plated at low density on glass coverslips coated with 100 μg/ml poly-D-lysine and 100 μg/ml collagen. Cells were transfected with receptor cDNAs ([…]) in combination with enhanced green fluorescent protein (eGFP) cDNA for visualization of transfected cells. Transfections were carried out with Fugene6 (Roche Applied Science) according to the manufacturer's protocol and used 2-3 days following transfection. Internal solution consisted of 110 mM CsF, 30 mM CsCl, 4 mM NaCl, 0.5 mM CaCl2, 10 mM HEPES, and 5 mM EGTA, and was adjusted to pH=7.3 with CsOH. The external solution contained 150 mM NaCl, 2.8 mM KCI, 2 mM CaCl2, 1 mM MgCl2, and 10 mM HEPES, adjusted to pH=7.3 with NaOH. Patch electrodes from thick-walled borosilicate glass (Warner Instruments, Hamden, Conn.) were pulled to a final resistance of 1.5 to 2.5 MO after fire polishing. […] To determine the pre-desensitization IC50 of selected analogs, several control glutamate (10 mM) applications were followed by a 2.5 minute application of various concentrations of 8-deoxy-neoDH, 9-deoxy-neoDH, or MSVIII-19, after which the analogs were co-applied with glutamate. A similar protocol was followed to measure the recovery of glutamate-evoked currents, with the exception that the analogs were not co-applied with glutamate. Whole cell patch clamp recordings were carried out using an Axopatch 200B amplifier (Axon Instruments). Data were analyzed with Origin 7.5 (OriginLab Corp.), and Prism4 (GraphPad Software Inc.); inhibition-response curves were plotted and fit with a one-site competition curve constrained to fixed minima (0) and maxima (100).
Because neoDH and its natural analog, dysiherbaine (DH), both act as KAR agonists, we tested each of the analogs for agonist activity using whole-cell patch clamp recordings. Application of saturating concentrations of glutamate (10 mM) to a transiently transfected HEK-293-T/17 cell was first done to obtain a rapidly activating and desensitizing control current; this was then followed by a test application of the analog at a high concentration (10-100 μM).
9-deoxy-neoDH and the di-deoxy antagonist, MSVIII-19, have very similar binding profiles on GluR5-2a and other subunits (Sanders et al., 2005), but both their functional activities and behavioral properties differ. 9-deoxy-neoDH elicits small but reproducible currents from GluR5-2a receptors (FIG. 8B), whereas MSVIII-19 behaves as an antagonist (Sanders et al., 2005). To further compare the activity of these compounds and the high-affinity agonist 8-deoxy-neoDH on GluR5-2a receptors, we determined their respective IC50s for pre-desensitization of the receptor (FIG. 9). Responses to 10 mM glutamate were elicited to determine the control current amplitudes for GluR5-2a expressing cells; receptors were then pre-desensitized with low concentrations of the analog (8-deoxy-neoDH or 9-deoxy-neoDH) before test co-applications with glutamate.
Several analogs, including the parent compounds DH and neoDH, induce a very stable, ligand-bound desensitized conformation of GluR5-2a and GluR6a receptors that occludes subsequent activation of the receptors for long periods of time. We measured the duration of the interaction of Group I analogs with GluR5-2a receptors by determining the time course of recovery of glutamate-evoked currents after application of the analogs (for 2.5 min) (FIG. 10). In FIG. 10A, traces on the left are representative control glutamate-evoked currents; traces on the right are glutamate-evoked currents ten minutes after exposure to 8-deoxy-neoDH, 9-deoxy-neoDH, or MSVIII-19 (each at 30 μM). […]

mice = details: Shoji et al., 2006, cited from earlier work; for ED50 seizure activity: i.c.v. injection, mice; for convulsant behavior, from the literature: i.c.v., Sasaki et al., 1999, Sakai et al., 2001a

T1 sequence (P19490 19-907 isoform P19490-2 limits assumed): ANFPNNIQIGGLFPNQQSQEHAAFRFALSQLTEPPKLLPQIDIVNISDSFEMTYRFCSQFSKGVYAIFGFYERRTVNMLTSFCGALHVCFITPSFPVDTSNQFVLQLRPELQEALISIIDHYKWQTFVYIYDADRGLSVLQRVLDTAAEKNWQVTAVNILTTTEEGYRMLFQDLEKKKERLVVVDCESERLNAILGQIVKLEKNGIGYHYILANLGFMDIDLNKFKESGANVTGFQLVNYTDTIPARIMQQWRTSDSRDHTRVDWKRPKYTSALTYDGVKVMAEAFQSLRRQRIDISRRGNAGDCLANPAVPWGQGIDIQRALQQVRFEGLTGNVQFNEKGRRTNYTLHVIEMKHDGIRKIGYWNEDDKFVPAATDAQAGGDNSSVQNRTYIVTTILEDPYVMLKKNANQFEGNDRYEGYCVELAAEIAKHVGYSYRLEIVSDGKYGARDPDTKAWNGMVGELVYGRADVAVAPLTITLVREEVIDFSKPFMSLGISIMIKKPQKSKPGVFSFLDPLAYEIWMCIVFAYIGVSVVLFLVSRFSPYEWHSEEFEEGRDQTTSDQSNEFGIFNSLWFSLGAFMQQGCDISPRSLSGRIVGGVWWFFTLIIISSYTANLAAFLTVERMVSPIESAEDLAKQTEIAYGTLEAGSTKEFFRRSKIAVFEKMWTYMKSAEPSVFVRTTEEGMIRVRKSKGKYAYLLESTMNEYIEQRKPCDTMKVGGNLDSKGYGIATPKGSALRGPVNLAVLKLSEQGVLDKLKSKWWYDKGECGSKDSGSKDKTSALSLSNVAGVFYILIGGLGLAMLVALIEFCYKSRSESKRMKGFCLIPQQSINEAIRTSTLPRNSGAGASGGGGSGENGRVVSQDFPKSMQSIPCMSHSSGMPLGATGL
T2 sequence (P19491 22-883 isoform P19491-2 limits assumed): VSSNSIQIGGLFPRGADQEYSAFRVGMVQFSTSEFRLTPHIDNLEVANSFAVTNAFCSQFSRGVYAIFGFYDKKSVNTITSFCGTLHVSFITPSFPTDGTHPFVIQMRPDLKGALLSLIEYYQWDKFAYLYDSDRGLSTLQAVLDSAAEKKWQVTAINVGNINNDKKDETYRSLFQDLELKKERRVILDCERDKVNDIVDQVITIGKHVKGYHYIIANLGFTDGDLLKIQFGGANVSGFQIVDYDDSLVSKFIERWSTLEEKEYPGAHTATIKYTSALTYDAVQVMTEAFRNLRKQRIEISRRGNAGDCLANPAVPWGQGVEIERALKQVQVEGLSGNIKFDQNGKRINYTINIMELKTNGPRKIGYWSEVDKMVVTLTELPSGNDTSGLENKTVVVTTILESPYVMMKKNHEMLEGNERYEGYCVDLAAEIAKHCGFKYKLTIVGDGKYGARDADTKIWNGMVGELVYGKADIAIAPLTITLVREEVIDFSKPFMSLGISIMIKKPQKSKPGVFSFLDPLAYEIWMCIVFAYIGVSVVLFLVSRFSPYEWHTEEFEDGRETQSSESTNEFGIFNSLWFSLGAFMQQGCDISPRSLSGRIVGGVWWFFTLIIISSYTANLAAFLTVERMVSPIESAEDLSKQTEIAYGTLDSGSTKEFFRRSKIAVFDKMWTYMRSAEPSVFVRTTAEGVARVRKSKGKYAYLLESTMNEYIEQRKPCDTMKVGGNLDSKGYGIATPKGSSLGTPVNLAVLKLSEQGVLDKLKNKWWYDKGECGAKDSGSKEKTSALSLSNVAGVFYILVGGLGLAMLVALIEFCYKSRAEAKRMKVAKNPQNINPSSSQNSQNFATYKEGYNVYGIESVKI
T3 sequence (P22756 with tags, fused parts or gaps isoform P22756-2 limits assumed, stated change not applied): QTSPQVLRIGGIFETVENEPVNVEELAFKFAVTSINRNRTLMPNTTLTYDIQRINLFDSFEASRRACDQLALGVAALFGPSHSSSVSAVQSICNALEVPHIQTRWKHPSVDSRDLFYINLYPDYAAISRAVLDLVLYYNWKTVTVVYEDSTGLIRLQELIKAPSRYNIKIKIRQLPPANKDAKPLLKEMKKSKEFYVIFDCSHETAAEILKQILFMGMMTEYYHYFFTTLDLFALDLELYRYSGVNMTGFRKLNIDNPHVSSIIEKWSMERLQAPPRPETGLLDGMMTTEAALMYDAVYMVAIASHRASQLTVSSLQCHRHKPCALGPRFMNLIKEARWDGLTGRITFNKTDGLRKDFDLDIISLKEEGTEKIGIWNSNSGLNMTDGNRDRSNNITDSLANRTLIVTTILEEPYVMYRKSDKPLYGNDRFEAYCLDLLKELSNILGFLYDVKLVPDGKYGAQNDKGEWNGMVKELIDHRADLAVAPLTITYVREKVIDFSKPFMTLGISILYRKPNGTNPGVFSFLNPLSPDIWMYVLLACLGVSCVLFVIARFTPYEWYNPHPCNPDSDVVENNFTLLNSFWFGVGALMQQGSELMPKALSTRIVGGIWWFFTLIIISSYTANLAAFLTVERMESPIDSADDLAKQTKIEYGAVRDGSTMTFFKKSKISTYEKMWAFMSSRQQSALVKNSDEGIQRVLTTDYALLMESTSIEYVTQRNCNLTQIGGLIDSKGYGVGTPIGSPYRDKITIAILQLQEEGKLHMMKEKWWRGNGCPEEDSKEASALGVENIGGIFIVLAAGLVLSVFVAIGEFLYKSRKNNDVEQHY

Row | SMILES | Ki (GluR1(i); read-out: Ki GluR1(i)) | Ki (GluR2(i); read-out: Ki GluR2(i)) | recovery of glutamate-evoked currents after analog application, GluR5-2a (GluR5-2a) | agonist activity: analog-evoked currents from GluR5-2a receptors (words) (GluR5-2a) | ED50 seizure activity (mice) | convulsant behavior, from the literature (mice) | other results
1 | N[C@@H](C[C@@]1(C(=O)O)CC2OCC(O)C(O)C2O1)C(=O)O (single isomer, unassigned) [4-epi-neoDH, 4-epi-neodysiherbaine] | > 30 µM | > 30 µM | remained associated with the GluR5-2a receptor for many minutes | evoked small but detectable currents; also recorded: elicits large currents; also recorded: activates | 1.7 nmol/mouse | weakly convulsant | 
2 | NC(CC1(C(=O)O)CC2OCC(O)C(O)C2O1)C(=O)O (stereo not drawn) [8,9-epi-neoDH, 8,9-epi-neodysiherbaine] | > 100 µM | > 100 µM |  | failed to activate GluR5-2a-expressing cells |  |  | agonist activity: analog-evoked currents from GluR5-2a receptors (words) (GluR5-2a; listed as 8,9epi-neoDH): failed to elicit a detectable current; inhibition of glutamate-evoked currents in GluR5-2a-expressing cells (GluR5-2a; high test concentrations, data not shown): modestly inhibited
3 | NC(CC1(C(=O)O)CC2OCC(F)C(O)C2O1)C(=O)O (stereo not drawn) [9-F-8-epi-neoDH] | > 100 µM | > 100 µM |  | elicited rapidly activating currents; also recorded: elicited large desensitizing currents with variable kinetics | 374 pmol/mouse |  | 
4 | NC(CC1(C(=O)O)CC2OCC(O)C(O)C2O1)C(=O)O (stereo not drawn) [8-epi-neoDH, 8-epi-neodysiherbaine] | 16 µM | 23 µM |  | elicited rapidly activating currents | 283 pmol/mouse |  | agonist activity: analog-evoked currents from GluR5-2a receptors (words) (GluR5-2a; listed as 8-epineoDH): elicited large desensitizing currents with variable kinetics
5 | N[C@@H](C[C@]1(C(=O)O)C[C@H]2OCCC[C@H]2O1)C(=O)O [MSVIII-19, 8,9-dideoxy-neoDH] |  |  |  |  | 6.3 nmol/mouse | sub-seizure stereotyped behavior followed by unresponsiveness | time constant for recovery of glutamate-evoked currents, τ (GluR5-2a): 1.4 s
6 | N[C@@H](C[C@]1(C(=O)O)C[C@H]2OC[C@@H](O)C[C@H]2O1)C(=O)O [8-deoxy-neoDH] |  |  | completely attenuated glutamate currents in response to glutamate for up to 15 min; also recorded: remained associated beyond the duration of the experiments | elicited currents; also recorded: full agonist, or a highly efficacious partial agonist; also recorded: full agonists or highly efficacious partial agonists; also recorded: GluR5 agonists | 238 pmol/mouse |  | Ki (GluR1(i); Ki GluR1(i)): > 100 µM; Ki (GluR2(i); Ki GluR2(i)): > 100 µM; IC50 (GluR5-2a): 0.000238 µM; inhibition of glutamate-evoked current, GluR5-2a (GluR5-2a): completely inhibited
7 | NC(CC1(C(=O)O)CC2OCC(O)C(O)C2O1)C(=O)O (stereo not drawn) [9-epi-neoDH, 9-epi-neodysiherbaine] | > 100 µM | > 100 µM |  | elicited rapidly activating currents; also recorded: elicited very small amplitude, weakly desensitizing currents; also recorded: very weak partial agonists | 8.6 nmol/mouse |  | 
8 | N[C@@H](C[C@]1(C(=O)O)C[C@H]2OCC[C@@H](O)[C@H]2O1)C(=O)O [9-deoxy-neoDH] | > 100 µM | > 100 µM |  | elicited currents; also recorded: very weak agonist; also recorded: GluR5 agonists | 7.1 nmol/mouse |  | IC50 (GluR5-2a; 2.5 min analog application, then co-application with 10 mM glutamate, read-out: IC50 for pre-desensitization of GluR5-2a receptors): 0.151 µM; time constant for recovery of glutamate-evoked currents, τ (GluR5-2a): 1.5 s; inhibition of glutamate-evoked current, GluR5-2a (GluR5-2a): inhibited but did not abolish
9 | N[C@@H](C[C@@]1(C(=O)O)CC2OCC(O)C(O)C2O1)C(=O)O (single isomer, unassigned) [2,4-epi-neoDH, 2,4-epi-neodysiherbaine] | > 100 µM | > 100 µM | remained associated with the GluR5-2a receptor for many minutes | failed to elicit detectable current; also recorded: antagonist (or possibly a very weak partial agonist); also recorded: fails to activate GluR5 or GluR6 receptors, even at 100 μM | 11.4 nmol/mouse | weakly convulsant | IC50 (GluR5-2a; 10 mM glutamate in continued presence of analog, read-out: IC50 inhibition of glutamate-evoked currents, GluR5-2a): 7.5 µM; agonist activity: analog-evoked currents from GluR5-2a receptors (words) (GluR5-2a; listed as 2,4-epineoDH): fails to activate; ED50 seizure activity (mice; listed as 2,4epi-neoDH): 11.4 nmol/mouse
